Test results as given in the NIST ThermoML archive (doi:10.1016/j.jct.2018.10.030).
Numbers after ± are expanded uncertainties.

Conditions: 298.15 K; 101.33 kPa; Liquid; Vibrating tube method

mass density [kg/m3] | Structure (SMILES)
830.01 ± 1 | CCCCCC=O [hexanal]
780.69 ± 0.23 | CC(C)O [propan-2-ol]
953.05 ± 0.21 | CCCC(=O)O [butanoic acid]

Second part, the compound before the results:

Structure (SMILES) | mass density [kg/m3]
CCCCCC(=O)O [hexanoic acid] | 923.07 ± 0.21
CCCCCCC=O [heptanal] | 816.83 ± 3.2
C[S+](C)[O-] [dimethyl sulfoxide] | 1095.34 ± 0.21
CCCCCCCC(=O)O [octanoic acid] | 906 ± 0.32
CCCCC(=O)O [pentanoic acid] | 934.75 ± 0.21
